Patent publication US12054497B2, “Substituted heterocyclic fused cyclic compound, preparation method therefor and pharmaceutical use thereof” (GENFLEET THERAPEUTICS (SHANGHAI) INC., priority 2019, dated 2024)

Test: Pharmacokinetic evaluation on mice, intravenous administration (Test Example 6)
Type: in vivo
Details: mouse, plasma, male CD-1 mice, IV 2 mg/kg; for clearance: read-out: Cl (clearance rate) (converted); for half-life: read-out: T1/2 (half-life) (converted); for Vd: read-out: Vd (volume of distribution)
Experimental: Experimental objective: male CD-1 mice were chosen as tested animals, and the LC-MS-MS method was employed to measure the concentrations of a tested compound in blood plasma of a mouse intravenously and intragastrically administrated with the tested compound at different times. The pharmacokinetic behaviors of tested compounds in mice were studied, and the pharmacokinetic characteristics thereof were evaluated.
Experimental scheme: experimental animals: 18 healthy adult male CD-1 mice (6 to 8 weeks old, and body weight about 30 g) were divided into 6 groups according to the principle of similar body weights: 3 mice in each of IV groups (3 groups), and 3 mice in each of PO groups (3 groups). The animals were purchased from Shanghai Jihui Laboratory Animal Care Co., Ltd.
Formulation: IV group: taking 10 mL of sample solution for example, 4 mg of sample was weighed, orderly added with 0.5 mL of DMSO and […], then added with […] of HP-p-CD, finally added with water to a constant volume of 10 mL, and stirred and subjected to ultrasonic irradiation, thereby obtaining a 0.4 mg/mL clear solution. PO group: an appropriate amount of sample was weighed, orderly added with appropriate amounts of Labrasol and water in a volume ratio of 10:40, and stirred and subjected to ultrasonic irradiation, thereby obtaining a 1.5 mg/mL uniform solution.
Administration: after being deprived of food for one night, the IV groups were intravenously administrated with the formulated solutions, respectively, with an injection volume of 5 mL/kg and a dosage of 2 mg/kg. The PO groups were intragastrically administrated with the formulated solutions, respectively, with an injection volume of […] and a dosage of 15 mg/kg.
Experimental operations: after the intravenous injection groups and the intragastric administration groups of the male CD-1 mice were administrated with the tested compounds, 110 ul of blood was sampled at the following time points: 0.0833, 0.25, 0.5, 1, 2, 4, 6, 8, and 24 hours. The sampled blood was placed into an anticoagulant tube which was added with K2EDTA in advance and preserved in dry ice. The tube was centrifuged for 15 minutes to separate blood plasma, and the separated blood plasma was preserved at −70° C. The animals were allowed to be fed after 4 hours of administration. The LC-MS-MS method was employed to measure the concentration of the tested compounds in the blood plasma after the intravenous and intragastric administration to the mice. The linear range of the method was 1-3000 ng/ml. The blood plasma samples were analyzed after protein precipitation with ACN.

SMILES	clearance	half-life	Vd
C=CC(=O)N1CCN2c3c(c(=O)n(-c4c(C)ccnc4C(C)C)c4nc(-c5c(O)cccc5F)c(F)cc34)N(C)C(=O)[C@H]2C1 (single isomer, unassigned) [Compound Z9-2]	2.33 mL/min/kg	104 min	0.326 L/kg
C=CC(=O)N1C[C@@H]2C(=O)N(C)c3c(c4cc(F)c(-c5c(O)cccc5F)nc4n(-c4c(C)ccnc4C(C)C)c3=O)N2C[C@H]1C (single isomer, unassigned) [Compound Z10-2]	13.5 mL/min/kg	56.5 min	1.06 L/kg
C=CC(=O)N1CCN2c3c(c(=O)n(-c4c(C)ccnc4C(C)C)c4nc(-c5c(O)cccc5F)c(Cl)cc34)N(C)C(=O)[C@H]2C1 (single isomer, unassigned) [Compound Z25-2]	8.32 mL/min/kg	60 min	0.661 L/kg
C=CC(=O)N1C[C@@H]2C(=O)N(C)c3c(c4cc(Cl)c(-c5c(O)cccc5F)nc4n(-c4c(C)ccnc4C(C)C)c3=O)N2C[C@H]1C (single isomer, unassigned) [Compound Z27-2]	9.83 mL/min/kg	64.8 min	0.777 L/kg
C=CC(=O)N1CCN2c3c(c(=O)n(-c4c(C(C)C)ncnc4C(C)C)c4nc(-c5c(O)cccc5F)c(Cl)cc34)N(C)C(=O)[C@H]2C1 [Compound Z48]	25.5 mL/min/kg	61.2 min	1.66 L/kg
